Experimental data published in US5866548A, “Caged membrane-permeant inositol phosphates” (priority 1996, dated 1999).
Entries after “also recorded” stand apart in the source; their conditions may differ.

Tests used:
1321N1 astrocytoma cells [1] = experiment: [Ca2+]i response before and after UV uncaging, fluo-3; assay type: cell-based; conditions: for [Ca2+]i response after uncaging of IP3-CPM: Ca2+ free medium
Experimental: (b) Same experiment as (a) except done in Ca^2+ free medium (DPBS, O Ca^2+, 0.5 mM EGTA). UV exposure of the cells treated with IP3 -CPM still gave the same response, showing that the [Ca^2+ ]i increase resulted from the release of Ca^2+ from internal stores. […] The cells were loaded with fluo-3/AM. During the experiment the cells were bathed in HBS buffered with 20 mM Hepes at pH 7.4 and supplemented with 2 g/L glucose.
The [Ca^2+ ]i was monitored using the calcium indicator fluo-3 rather than fura-2 to keep the excitation wavelength of the indicator (490 nm) far from the uncaging wavelength (360 nm) of DMNB group. […] Compared to the photolyzing set-up (direct illumination by a hand mercury lamp) used for the IP3 -binding assay, the optical throughput from the source lamp to the specimen is much higher in a microscope, so 10 seconds (as opposed to 2 hours in IP3 binding assay) of photolysis was sufficient to produce enough IP3 to elicit [Ca^2+ ]i increase. The same amount of UV alone had no effect at all on [Ca^2+ ]i in cells not treated with IP3 -CPM. After recovering from uncaging of IP3 -CPM, the cells responded to subsequent carbachol and thapsigargin stimulation normally.
This confirmed that the [Ca^2+ ]i increase due to uncaging of IP3 -CPM resulted from internal Ca^2+ release, which was consistent with the normal mechanism of IP3 action.

1321N1 astrocytoma cells [2] = experiment: as above; assay type: cell-based; conditions: with extracellular Ca2+, carbachol 200 μM, thapsigargin 100 nM, ionomycin 5 μM
intestinal cell line T84 = experiment: cells; assay type: cell-based; conditions: 0.2 h; T84, ISC 12 min after addition; read-out: EC50 (chloride secretion)
Description: A convenient test system is the intestinal cell line T84, in which chloride secretion can be continuously monitored by mounting confluent monolayers of cells in Ussing chambers (42).

IP3 receptor (IP3 R) = target: T1, IP3 receptor (IP3 R) (Bos taurus, UniProt Q9TU34); experiment: [3H]IP3 binding assay, bovine cerebellum microsomal fractions
T1 construct: from tissue; host or cells: bovine cerebellum microsomal fractions
T1 sequence (Q9TU34 whole entry): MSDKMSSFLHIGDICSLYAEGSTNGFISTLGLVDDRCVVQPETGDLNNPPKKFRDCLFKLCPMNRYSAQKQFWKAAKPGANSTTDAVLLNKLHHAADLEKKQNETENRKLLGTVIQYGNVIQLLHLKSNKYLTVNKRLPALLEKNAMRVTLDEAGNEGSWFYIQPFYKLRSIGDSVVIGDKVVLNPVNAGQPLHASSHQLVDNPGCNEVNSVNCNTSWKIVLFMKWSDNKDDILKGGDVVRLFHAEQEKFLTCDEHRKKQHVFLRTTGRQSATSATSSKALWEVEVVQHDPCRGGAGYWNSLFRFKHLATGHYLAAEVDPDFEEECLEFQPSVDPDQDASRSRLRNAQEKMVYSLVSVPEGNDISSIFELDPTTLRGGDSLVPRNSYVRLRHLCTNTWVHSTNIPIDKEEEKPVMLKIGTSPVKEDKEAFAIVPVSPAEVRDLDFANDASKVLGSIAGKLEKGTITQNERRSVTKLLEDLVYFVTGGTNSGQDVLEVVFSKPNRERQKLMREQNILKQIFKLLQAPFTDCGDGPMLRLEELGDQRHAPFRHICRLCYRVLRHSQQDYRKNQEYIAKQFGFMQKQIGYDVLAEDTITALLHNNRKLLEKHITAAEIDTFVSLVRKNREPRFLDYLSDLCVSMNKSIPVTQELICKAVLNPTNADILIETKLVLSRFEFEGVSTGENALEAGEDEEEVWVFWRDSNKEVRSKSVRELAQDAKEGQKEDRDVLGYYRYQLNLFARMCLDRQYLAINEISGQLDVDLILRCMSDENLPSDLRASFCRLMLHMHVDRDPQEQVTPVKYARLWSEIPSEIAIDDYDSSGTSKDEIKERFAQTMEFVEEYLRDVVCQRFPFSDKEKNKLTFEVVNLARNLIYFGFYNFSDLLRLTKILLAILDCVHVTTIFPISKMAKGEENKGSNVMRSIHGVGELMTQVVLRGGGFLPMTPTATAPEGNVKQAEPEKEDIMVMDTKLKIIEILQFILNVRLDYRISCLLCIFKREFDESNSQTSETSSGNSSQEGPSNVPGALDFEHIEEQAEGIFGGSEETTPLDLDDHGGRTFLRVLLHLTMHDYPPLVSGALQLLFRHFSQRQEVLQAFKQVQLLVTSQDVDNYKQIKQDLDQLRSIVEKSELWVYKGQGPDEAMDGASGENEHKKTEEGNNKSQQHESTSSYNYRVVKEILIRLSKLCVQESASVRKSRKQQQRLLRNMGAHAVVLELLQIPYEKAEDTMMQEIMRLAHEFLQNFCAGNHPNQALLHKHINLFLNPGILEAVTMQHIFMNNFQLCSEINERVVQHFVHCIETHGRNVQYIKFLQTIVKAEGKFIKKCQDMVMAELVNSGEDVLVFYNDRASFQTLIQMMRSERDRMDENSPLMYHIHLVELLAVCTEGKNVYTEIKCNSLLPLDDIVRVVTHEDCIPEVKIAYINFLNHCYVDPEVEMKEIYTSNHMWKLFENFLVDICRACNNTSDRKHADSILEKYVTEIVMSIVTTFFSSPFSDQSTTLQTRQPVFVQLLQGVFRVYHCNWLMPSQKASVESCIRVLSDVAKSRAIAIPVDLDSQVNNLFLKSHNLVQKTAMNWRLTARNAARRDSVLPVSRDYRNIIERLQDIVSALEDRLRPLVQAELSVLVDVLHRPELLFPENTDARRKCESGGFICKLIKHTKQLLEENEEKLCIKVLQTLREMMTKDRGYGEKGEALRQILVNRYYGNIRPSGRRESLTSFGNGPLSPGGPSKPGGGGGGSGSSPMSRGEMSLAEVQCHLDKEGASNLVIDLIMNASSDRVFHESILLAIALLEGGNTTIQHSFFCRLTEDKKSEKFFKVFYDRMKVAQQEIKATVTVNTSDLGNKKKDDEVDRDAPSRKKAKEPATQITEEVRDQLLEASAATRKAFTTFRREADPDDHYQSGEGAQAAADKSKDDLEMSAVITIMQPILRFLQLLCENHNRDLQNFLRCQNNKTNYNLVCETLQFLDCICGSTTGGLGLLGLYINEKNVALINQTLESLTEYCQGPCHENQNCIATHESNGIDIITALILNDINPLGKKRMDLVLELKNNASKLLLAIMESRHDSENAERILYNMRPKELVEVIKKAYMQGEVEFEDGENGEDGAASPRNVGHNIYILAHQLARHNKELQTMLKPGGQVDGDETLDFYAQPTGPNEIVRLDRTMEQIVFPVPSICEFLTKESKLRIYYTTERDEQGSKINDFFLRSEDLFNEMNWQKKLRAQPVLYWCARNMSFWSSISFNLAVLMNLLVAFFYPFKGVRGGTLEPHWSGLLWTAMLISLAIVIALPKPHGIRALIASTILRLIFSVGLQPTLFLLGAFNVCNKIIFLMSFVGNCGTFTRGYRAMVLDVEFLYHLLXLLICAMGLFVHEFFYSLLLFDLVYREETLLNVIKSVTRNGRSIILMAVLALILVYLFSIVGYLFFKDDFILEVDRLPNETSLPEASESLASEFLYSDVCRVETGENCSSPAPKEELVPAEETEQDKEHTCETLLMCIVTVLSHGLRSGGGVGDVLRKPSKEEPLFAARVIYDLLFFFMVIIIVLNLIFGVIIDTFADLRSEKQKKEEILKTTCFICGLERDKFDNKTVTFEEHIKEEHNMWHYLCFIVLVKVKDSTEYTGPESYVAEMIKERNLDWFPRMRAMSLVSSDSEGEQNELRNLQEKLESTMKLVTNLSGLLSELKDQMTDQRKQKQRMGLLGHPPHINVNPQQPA
Experimental: Bovine cerebellum microsomal fractions, which are a rich source of IP3 binding protein, were prepared and used for [^3 H]IP3 binding assay. […] The IC50 of D-IP3 was about 8 nM.
At this point, the crude photolysis product from 100 pmol V-16 was equivalent in binding activity to 32 pmol of authentic IP3. […] The absolute stereochemistry of V-3 and its diastereomer was thus assigned.

1321N1 astrocytoma cells [3] = experiment: Cytosolic free Ca2+ imaging, fura-2; assay type: cell-based; conditions: 2 μM, with extracellular Ca2+
Experimental: Biological tests on 1321N1 astrocytoma cells were performed similarly to the tests on REF-52 cells (71). The concentration of Cytosolic free Ca^2+ (ordinate, in units of μM) in fura-2-loaded 1321N1 astrocytoma cells is shown as a function of time (abscissa, in units of seconds). At the dotted vertical line labeled 1, 20 μM inositol-1,4,5-triphosphate propionyloxymethyl ester (5a, R=Et, R'=H) was added. […] Subsequently the cells could respond to carbachol (200 μM, delivered at the dotted vertical line labeled 2), a drug that stimulates the endogenous generation of inositol-1,4,5-triphosphate. However, the response to carbachol is depressed by the prior treatment with the inositol-1,4,5-triphosphate propionyloxymethyl ester. Likewise the Ca^2+ response to thapsigargin (100 nM, delivered at the dotted vertical line labeled 3), another drug that releases stored Ca^2+, is depressed.
A test similar to the one shown in FIG. 7 was conducted except that the medium lacked extracellular Ca^2+ and a dose of 60 μM inositol-1,4,5-triphosphate propionyloxymethyl ester was added at the dotted vertical line labeled 1. […] Because no extracellular Ca^2+ was present, this response must have represented release from intracellular Ca^2+ stores. […] The much greater degree of inhibition of the carbachol response compared to the previous example (FIG. 7) is due to the higher dose of the inositol-1,4,5-triphosphate propionyloxymethyl ester and the absence of extracellular Ca^2+, which reduces refilling of Ca^2+ stores.
In a further example, the same test as set forth above was conducted with astrocytoma cells, except that 2 μM inositol-1,4,5-triphosphate butyryloxymethyl ester (5a, R=Pr, R'=H) was used instead of the propionyloxymethyl ester.

[4] = tested on: P388D1 macrophage-like cells; experiment: [Ca2+]i response before and after UV uncaging, fluo-3; assay type: cell-based; conditions: PAF 100 nM, ionomycin 5 μM
Experimental: The cells were loaded with fluo-3/AM. During the experiment the cells were bathed in HBS buffered with 20 mM Hepes at pH 7.4 and supplemented with 2 g/L glucose.
Another example was carried out in P388D1 macrophage-like cells.
Studies by Asmis et al. (92) have shown that, in P388D1 macrophage-like cells, PAF stimulated PGE2 production is mediated through two separate signals: IP3 induced [Ca^2+ ]i increase and another unidentified signal. IP3 -CPM might serve as a new tool for detailed study of PGE2 formation and AA release in relation to IP3 and [Ca^2+ ]i in these cells. One of the major advantages of using permeant IP3 derivatives is that experiments can be easily carried out in a population of cells, which is required for the measurement of AA release and PGE2 formation.

## C[N+](C)(C)CCOC(N)=O [Carbachol]
1321N1 astrocytoma cells [1]
  [Ca2+]i response after uncaging of IP3-CPM: able to cause further Ca^2+ release
1321N1 astrocytoma cells [2]
  [Ca2+]i response after recovery from uncaging of IP3-CPM: normal response
1321N1 astrocytoma cells [2]; listed as carbachol
  [Ca2+]i response after recovery from uncaging of IP3-CPM: normally

## Nc1ncnc2c1nc(Sc1ccc(Cl)cc1)n2[C@@H]1O[C@@H]2COP(=O)(O)O[C@H]2[C@H]1O [Compound 8-pCPT-cAMP, 8-para-chlorophenylthio (cCPT) cAMP, reference compound]
Intestinal cell line T84
  EC50: 100 µM

## O=P(O)(O)O[C@@H]1[C@H](O)[C@H](O)[C@@H](OP(=O)(O)O)[C@H](OP(=O)(O)O)[C@H]1O [D-IP3, myo-inositol 1,4,5-triphosphate, reference compound]
IP3 receptor (IP3 R); cerebellar microsomes, read-out: IC50, inhibition of [3H]IP3 binding
  IC50: ~0.008 µM

## COc1cc(CO[C@@H]2[C@@H](OP(=O)(OCOC(C)=O)OCOC(C)=O)[C@H](OP(=O)(OCOC(C)=O)OCOC(C)=O)[C@H]3OC(OC)O[C@H]3[C@H]2OP(=O)(OCOC(C)=O)OCOC(C)=O)c([N+](=O)[O-])cc1OC (stereo partly drawn) [IP3 -CAM, D-2,3-O-methoxymethylene-6-O-(4,5-dimethoxy-2-nitrobenzyl)-myo-inositol 1,4,5-trisphosphate hexakis(acetoxymethyl)ester]
1321N1 astrocytoma cells [1]; astrocytes, response similar to IP3-CPM
  incubation time required: more than 15 minutes

## CCCC(=O)OCOP(=O)(OCOC(=O)CCC)O[C@@H]1[C@H](O)[C@H](O)[C@@H](OP(=O)(OCOC(=O)CCC)OCOC(=O)CCC)[C@H](OP(=O)(OCOC(=O)CCC)OCOC(=O)CCC)[C@H]1O [IP3 /BM, D-myo-inositol-1,4,5-triphosphate butyryloxymethyl ester]
1321N1 astrocytoma cells [3]
  Ca2+ elevation, potency compared with propionyloxymethyl ester: somewhat more potent
  time course compared with propionyloxymethyl ester: slower to appear and decay

## C[C@H](CCC(=O)O)C[C@H](C)C[C@H](C)C(=O)/C=C(\O)[C@H](C)C[C@H](C)C/C=C/[C@@H](C)[C@@H](O)[C@@H](C)[C@@H](O)C[C@@H]1CC[C@@](C)([C@H]2CC[C@@](C)([C@@H](C)O)O2)O1 [Ionomycin, reference compound]
[4]
  [Ca2+]i response after uncaging of IP3-CPM: huge [Ca^2+ ]i increase
1321N1 astrocytoma cells [1]
  [Ca2+]i response after uncaging of IP3-CPM: small and transient [Ca^2+ ]i increase; also recorded: additional small [Ca^2+ ]i increase
1321N1 astrocytoma cells [2]
  [Ca2+]i response after recovery from uncaging of IP3-CPM: further raised [Ca^2+ ]i to a saturating level; also recorded: huge [Ca^2+ ]i increase

## O=P(O)(O)O[C@@H]1[C@@H](O)[C@H](OP(=O)(O)O)[C@@H](OP(=O)(O)O)[C@H](O)[C@@H]1O [L-IP3, reference compound]
IP3 receptor (IP3 R); without photolysis
  affinity to IP3 R / binding to cerebellar microsomes (in words): negligible affinity

## CCCCCCCCCCCCCCCCOC[C@H](COP(=O)([O-])OCC[N+](C)(C)C)OC(C)=O [PAF, reference compound]
[4]
  [Ca2+]i response after uncaging of IP3-CPM: smaller [Ca^2+ ]i increase; also recorded: attenuated response

## C/C=C(/C)C(=O)O[C@H]1C(C)=C2[C@H]([C@@H]1OC(=O)CCCCCCC)[C@@](C)(OC(C)=O)C[C@H](OC(=O)CCC)[C@@]1(O)[C@H]2OC(=O)[C@@]1(C)O [thapsigargin]
1321N1 astrocytoma cells [1]
  [Ca2+]i response after uncaging of IP3-CPM: able to cause further Ca^2+ release
1321N1 astrocytoma cells [2]
  [Ca2+]i response after recovery from uncaging of IP3-CPM: normally; also recorded: normal response
